# Measured values reported in article PMC4138078, “Chemically Modified Peptide Scaffolds Target the CFTR-Associated Ligand PDZ Domain” (PLoS ONE, 2014).
# Structures can show the parent of a compound that is named as a salt. Peptide text beside a SMILES is read from it. * marks the point of attachment. Benzoyl(4-Br) = O=C(c1ccc(Br)cc1)*; Benzoyl(4-F) = O=C(c1ccc(F)cc1)*; Tfa = O=C(C(F)(F)F)*
# Tests used:
# Type in all cases: binding
# [1] = target: T1, CAL PDZ domain (CALP) (Homo sapiens, UniProt Q9HD26); assay: Fluorescence polarization (FP) competition/displacement assay; details: for binding affinity stronger than iCAL36: FP displacement
# T1 construct: made in house
# Description: FP competition experiments were performed as previously described, [17].
# For illustrative purposes, a logistic curve-fit is shown, but K I values and fractional reporter occupancy values were determined by least-squares fitting of the complete binding equation.
# [2] = target: T1, CAL PDZ domain (CALP); assay: Isothermal titration calorimetry (ITC); details: ITC value relative to FP value
# Description: ITC experiments were performed and analyzed in a manner similar to that described previously, [20]. Titrations were performed with a Nano ITC 2G (TA Instruments). In brief, for a typical titration, 100–320 µM CALP was loaded into the 943 µL sample cell, and 2–3 mM peptide placed in a 250 µL injector syringe. For [drawing 8] , titrations were performed with polyhistidine-tagged CALP. Peptide concentrations were adjusted based on the amount of protein, so the final ratio of peptide to protein ranged between 3∶1–4∶1. Each titration included an initial 1 or 2 µL injection followed by 5 or 10 µL injections performed at 180 s intervals, for a total of 25–50 injections. The stirring speed was 250 rpm, and experimental temperature was 25°C. Thermograms were analyzed using NanoAnalyze software (TA Instruments). Details are described in ref. [21].
# [3] = target: T1, CAL PDZ domain (CALP); assay: Surface plasmon resonance (SPR), equilibrium analysis; details: SPR value relative to FP value
# Description: SPR experiments were performed on a Biacore X100 Plus (GE Healthcare Life Sciences), with CALP covalently immobilized on a CM5 sensor chip. […] Sensorgrams were analyzed using the Biacore evaluation software. Experiments were performed in duplicate or triplicate (n≥2). A detailed description is provided in ref. [21].
Compound,fold-deviation of K D from ITC from the value obtained by FP [2],fold-deviation of K D from SPR from the value obtained by FP [3],change in binding affinity compared to iCAL36 ([1]; head-to-head FP displacement assays),binding affinity stronger than iCAL36 [1]
CC[C@H](C)[C@H](NC(=O)[C@@H](NC(=O)[C@H](CO)NC(=O)[C@@H](NC(=O)[C@@H]1CCCN1C(=O)[C@H](Cc1c[nH]c2ccccc12)NC(=O)[C@H](CCCNC(=N)N)NC(=O)[C@H](CO)NC(=O)[C@H](CC(N)=O)NC(=O)[C@H](C)NC(C)=O)[C@@H](C)O)[C@@H](C)CC)C(=O)O [Ac-iCAL36],,,no significant change,
CC[C@H](C)[C@H](NC(=O)[C@H](CCCCNC(=O)c1ccc(Br)cc1)NC(=O)[C@H](CO)NC(=O)[C@@H](NC(=O)[C@@H]1CCCN1C(=O)[C@H](Cc1c[nH]c2ccccc12)NC(=O)[C@H](CCCNC(=N)N)NC(=O)[C@H](CO)NC(=O)[C@H](CC(N)=O)NC(=O)[C@H](C)N)[C@@H](C)O)C(=O)O [Peptide C00005] (H-ANSRWPTSK(Benzoyl(4-Br))I-OH),(1.9) fold,(1.8) fold,,~2 fold
H-ANSRWPK(Ac)SII-OH [Peptide C00002],(0.5) fold,(0.7) fold,,
H-ANSRWPTSK(Ac)I-OH [Peptide C00001],(1.8) fold,(2.7) fold,,

# More lines, main results first:
fold-deviation of K D from ITC from the value obtained by FP [2],fold-deviation of K D from SPR from the value obtained by FP [3],change in binding affinity compared to iCAL36 ([1]; head-to-head FP displacement assays),Compound,binding affinity stronger than iCAL36 [1]
(1.1) fold,(2.4) fold,,CC[C@H](C)[C@H](NC(=O)[C@H](CCCCNC(=O)c1ccc(F)cc1)NC(=O)[C@H](CO)NC(=O)[C@@H](NC(=O)[C@@H]1CCCN1C(=O)[C@H](Cc1c[nH]c2ccccc12)NC(=O)[C@H](CCCNC(=N)N)NC(=O)[C@H](CO)NC(=O)[C@H](CC(N)=O)NC(=O)[C@H](C)N)[C@@H](C)O)C(=O)O [Peptide C00006] (H-ANSRWPTSK(Benzoyl(4-F))I-OH),~2 fold
(1.5) fold,(2.0) fold,,CC[C@H](C)[C@H](NC(=O)[C@@H](NC(=O)[C@H](CO)NC(=O)[C@@H](NC(=O)[C@H](CCCCNC(C)=O)NC(=O)[C@H](Cc1c[nH]c2ccccc12)NC(=O)[C@H](CCCNC(=N)N)NC(=O)[C@H](CO)NC(=O)[C@H](CC(N)=O)NC(=O)[C@H](C)N)[C@@H](C)O)[C@@H](C)CC)C(=O)O [Peptide C00003],
,(0.5) fold,,CC[C@H](C)[C@H](NC(=O)[C@@H](NC(=O)[C@H](CO)NC(=O)[C@@H](NC(=O)[C@@H]1CCCN1C(=O)[C@H](CCCCNC(C)=O)NC(=O)[C@H](CCCNC(=N)N)NC(=O)[C@H](CO)NC(=O)[C@H](CC(N)=O)NC(=O)[C@H](C)N)[C@@H](C)O)[C@@H](C)CC)C(=O)O [Peptide C00004],
(2.4) fold,(1.6) fold,,CC[C@H](C)[C@H](NC(=O)[C@H](CCCCNC(=O)C(F)(F)F)NC(=O)[C@H](CO)NC(=O)[C@@H](NC(=O)[C@@H]1CCCN1C(=O)[C@H](Cc1c[nH]c2ccccc12)NC(=O)[C@H](CCCNC(=N)N)NC(=O)[C@H](CO)NC(=O)[C@H](CC(N)=O)NC(=O)[C@H](C)N)[C@@H](C)O)C(=O)O [Peptide C00007] (H-ANSRWPTSK(Tfa)I-OH),
